The numbers were not newly measured in patent publication US20140010884A1, “DERMATOLOGICAL COMPOSITIONS COMPRISING RETINOIDS, DISPERSED BENZOYL PEROXIDE AND CARRAGEENANS” (GALDERMA RESEARCH & DEVELOPMENT, priority 2008, published 2014), which cites them from elsewhere.

Read-outs that look alike come from different tables or passages of the source.

For data set [1] the following is noted: for decomposition time: 40° C.
The conditions of data set [2]: in PEG 400 and ethanol.

For the compound `CC1=C(/C=C/C(C)=C/C=C/C(C)=C/C(=O)O)C(C)(C)CCC1` [tretinoin], the “retinoid decomposing in presence of benzoyl peroxide” value by setting is: (in 2 hours) 50%; (in 24 hours) 95%.
For `COc1ccc(-c2ccc3cc(C(=O)O)ccc3c2)cc1C12CC3CC(CC(C3)C1)C2` [adapalene, 6-[3-(1-adamantyl)-4-methoxyphenyl]-2-naphthoic acid], where the note is “during 24 hours”, the “decomposition of retinoid in presence of benzoyl peroxide” value is listed as “no decomposition”.
Take `O=C(OOC(=O)c1ccccc1)c1ccccc1` [benzoyl peroxide]: the values for the decomposition time in data set [1] (in PEG 400 (0.5 mg/g)), in data set [1] (in ethanol) and in data set [1] (in propylene glycol) were 1.4 days, 29 days and 53 days, respectively. In addition, in data set [1] (in water and propylene glycol, after storing for 90 days), the “decomposition in suspension (dispersed form)” value is “not decomposed”. In addition, the solubility result in data set [2] is “particularly soluble”.
